Test results from patent EP0071535B1, “(4-(2 and/or 3-Thienylacetamido)-phenoxy)-hydroxyaminopropanes, their preparation, their therapeutic use and intermediates” (CARPIBEM (CENTRE D'ACTIVITE ET DE RECHERCHE PHARMACEUTIQUE …, priority 1981, dated 1983).

Experiments:
[1] = system: effets β1 (augmentation de la force contractile du myocarde) de l'isoprénaline; experiment: β-blocking activity: inhibition of the β1 effects of intravenous isoprenaline in anaesthetised dogs; assay type: in vivo, chiens; settings: Canis lupus familiaris, iv, dog, inhibition given with negative sign, read-out: % d'inhibition des effets β1^(+) de l'Isoprénaline; for inhibition at 0.001 mg/kg: 0,001 mg/kg I.V.; for inhibition at 0.003 mg/kg: 0,003 mg/kg I.V.; for inhibition at 0.01 mg/kg: 0,010 mg/kg I.V.; for inhibition at 0.1 mg/kg: 0,100 mg/kg I.V.
Method: (§1) Des chiens tout-venants mâles ou femelles sont anesthésiés au mébubarbital sodique (30 mg/kg I.V.) et ventilés artificiellement par une pompe Pesty RPP. Ils sont supplémentés en oxygène.
(§2) On mesure: • - la pression carotidienne systolique et diastolique • - la force contractile du myocarde.
(§3) Les signaux sont amplifiés et enregistrés sur Dynograph Beckman.
(§4) L'activité β bloquante adrénergique a été étudiée vis-à-vis des effets β1 (augmentation de la force contractile du myocarde) et des effets P2 (diminution de la pression artérielle disstolique) de l'isoprénaline administrée par voie intraveineuse.
(§5) On calcule le pourcentsge d'inhibition des effets β1 et des effets β2 de l'isoprénaline en fonction des doses (mg.kg I.V.) des différents exemples.
(§6) Les exemples sont injectés dans le veine saphène aux doses (exprimées en base) de: 0,0003 0,001 0,003 0,01 0,1 1,0 et 4,0 ou 8,0 mg.kg-1.

[2] = system: effets β2 (diminution de la pression artérielle diastolique) de l'isoprénaline; experiment: β-blocking activity: inhibition of the β2 effects of intravenous isoprenaline in anaesthetised dogs; assay type: in vivo, chiens; settings: Canis lupus familiaris, iv, dog, inhibition given with negative sign, read-out: % d'inhibition des effets β2^⊕ de l'Isoprénaline; for inhibition at 0.001 mg/kg: 0,001 mg/kg I.V.; for inhibition at 0.003 mg/kg: 0,003 mg/kg I.V.; for inhibition at 0.01 mg/kg: 0,010 mg/kg I.V.; for inhibition at 0.1 mg/kg: 0,100 mg/kg I.V.
Method: as §1, §2, §3, §4, §5, §6

[3] = system: rat génétiquement hypertendu: Rat OKAMOTO; experiment: Antihypertensive activity in spontaneously hypertensive rats (tail-cuff systolic pressure and heart rate after oral dosing); assay type: in vivo; settings: 64 mg.kg^-1 V.O
Method: Des rats mâles âgés de 13 à 21 semaines présentant une hypertension spontanée génétiquement transmissible (souche OKAMOTO provenance IFFA CREDO) sont placés dans une enceinte thermostatée à 38°C. Les rats sont laissés en situation libre. La pression artérielle est mesurée par un sphygmomanomètre Narco Biosystem. Un manchon est placé à la base de la queue et un détecteur enregistre le pouls en aval du manchon. Celui-ci est gonflé jusqu'à suppression du pouls il est ensuite progressivement dégonflé. La pression mesurée à la reprise des battements cardiaques est la pression artérielle systolique. On calcule la fréquence cardiaque à partir de l'enregistrement du pouls artériel. Les produits à étudiar sont mis en suspension el administrés par voie orale sous un volume de 1 ml pour 100 g de poids corporel. Les mesures sont répétées à intervalles réguliers.
Les valeurs moyennes avant traitement pour les différents lots de rats sont pour la pression artérielle systolique de 190 à 200 mmHg et pour la fréquence cardiaque de 305 à 350 battements par minute.
Le tableau III ci-après donne la moyenne des variations de la pression systolique (mmHg) de la fréquence cardisque (battements/minute) et les écarts type à la moyenne obtenus 1 heure 3 heures et 5 heures après administration orale.

SMILES | inhibition at 0.001 mg/kg [1] [%] | inhibition at 0.003 mg/kg [1] [%] | inhibition at 0.01 mg/kg [1] [%] | inhibition at 0.1 mg/kg [1] [%] | inhibition at 0.001 mg/kg [2] [%] | inhibition at 0.003 mg/kg [2] [%] | inhibition at 0.01 mg/kg [2] [%] | inhibition at 0.1 mg/kg [2] [%] | Fréquence cardiaque Δ (battements/min) T+1 heure m (sm) [3] | Pression systolique Δ (mmHg) T+1 heure m (sm) [3] | Pression systolique Δ (mmHg) T+3 heures m (sm) ([3]; T+3 heures) | Fréquence cardiaque Δ (battements/min) T+5 heures m (sm) [3] | Pression systolique Δ (mmHg) T+5 heures m (sm) [3] | Fréquence cardiaque Δ (battements/min) T+3 heures m (sm) ([3]; T+3 heures)
CC(C)(C)NCC(O)COc1ccc(NC(=O)Cc2ccsc2)cc1Cl (stereo not drawn) [exemple 45, 1-[2-chloro 4-(3-thiénylacétamido)phénoxy] 3-terbutylamino 2-propanol] | -30 | -60 | -86 | -100 | -12 | -5 | -23 | -33 | +45 (6) battements/min | -32 (5) mmHg | -14 (9) mmHg | +30 (10) battements/min | -28 (5) mmHg | 
CC(C)NCC(O)COc1ccc(NC(=O)Cc2cccs2)cc1F (stereo not drawn) [exemple 48, 1-[2-fluoro 4-(2-thiénylacétamido)phénoxy] 3-isopropylamino 2-propanol] | -11 | -23 | -41 | -83 | -27 | -31 | -46 | -52 | +38 (10) battements/min | -51 (6) mmHg | -50 (6) mmHg | +27 (10) battements/min | -45 (6) mmHg | +41 (8) battements/min
